Assay [1] concerns the target T1, Recombinant (1-346) HPK1 (h) (Homo sapiens, UniProt Q92918).
T1 construct: Recombinant (1-346) HPK1 (h) is incubated with 8 mM MOPS pH 7.0
T1 sequence (Q92918 1-346): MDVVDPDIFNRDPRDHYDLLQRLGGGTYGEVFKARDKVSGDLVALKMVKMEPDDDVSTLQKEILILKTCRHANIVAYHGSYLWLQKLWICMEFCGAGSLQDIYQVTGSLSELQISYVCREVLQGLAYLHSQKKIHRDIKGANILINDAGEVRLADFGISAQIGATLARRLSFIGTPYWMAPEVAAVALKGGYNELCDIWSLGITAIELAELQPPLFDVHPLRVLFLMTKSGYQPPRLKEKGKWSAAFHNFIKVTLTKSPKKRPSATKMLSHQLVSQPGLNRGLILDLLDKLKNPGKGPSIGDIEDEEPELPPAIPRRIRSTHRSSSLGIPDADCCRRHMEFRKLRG
In words: HPK1 Human STE Kinase Enzymatic Radiometric Assay. Format: biochemical. The conditions noted are these: read-out: HPK1 IC50 nM Range*. As to the method: A stock solution of 10 mM of test compound is prepared in DMSO. The compound plate was prepared by 3-fold and 9-point serial dilutions. […] The reaction is initiated by The addition of the Mg/ATP mix. After incubation for 40 minutes at RT, the reaction is stopped by the addition of phosphoric acid to a concentration of 0.5%.

The target in the next assay is Lck (h) (Homo sapiens, UniProt P06239). In words: Lck Human  Kinase Enzymatic Radiometric Assay. Format: biochemical. The conditions noted are these: read-out: Lck IC50 nM Range*. An outline of the steps:
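Substrate 33P-incorporation measured by scintillation counting after spotting on P30 filtermat and phosphoric acid washes. Human Lck reacted 40 min at RT in 50 mM Tris pH 7.5 with 10 mM MgAcetate, [gamma-33P]-ATP, 250 uM Cdc2 peptide, 0.1 mM EGTA and 0.1 mM Na3VO4.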

Chain of Lck (h) (P06239 whole entry): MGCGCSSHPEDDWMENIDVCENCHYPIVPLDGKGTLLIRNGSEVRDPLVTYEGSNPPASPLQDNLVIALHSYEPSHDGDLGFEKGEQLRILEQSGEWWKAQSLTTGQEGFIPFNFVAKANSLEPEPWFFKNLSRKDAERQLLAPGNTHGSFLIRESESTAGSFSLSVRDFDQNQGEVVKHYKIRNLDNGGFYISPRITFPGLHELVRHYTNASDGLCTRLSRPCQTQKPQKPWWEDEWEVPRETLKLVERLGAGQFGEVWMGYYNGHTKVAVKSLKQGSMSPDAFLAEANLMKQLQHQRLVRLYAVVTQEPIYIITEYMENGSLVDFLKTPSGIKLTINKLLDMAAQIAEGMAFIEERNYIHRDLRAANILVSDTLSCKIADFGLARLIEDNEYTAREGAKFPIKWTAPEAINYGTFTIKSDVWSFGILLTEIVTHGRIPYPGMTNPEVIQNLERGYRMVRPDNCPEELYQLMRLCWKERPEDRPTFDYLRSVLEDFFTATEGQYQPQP

The IC50 is the concentration that inhibits the measured activity by half. Turning to `CC(C)N1C[C@H]2C[C@@]2(c2ccc(-c3cc(-c4ccc5c(c4)CCNC5=O)c(N)nc3F)cc2)C1` [I-110, 6-(2-amino-6-fluoro-5-(4-((1R,5S)-3-isopropyl-3-azabicyclo[3.1.0]hexan-1-yl)phenyl)pyridin-3-yl)-3,4-dihydroisoquinolin-1(2H)-one], the IC50 in assay [1] was 0.1 to 10 nM; at Lck (h), over 1000 nM.
For `CC(C)N1C[C@@H]2C[C@]2(c2ccc(-c3cc(-c4ccc5c(c4)CCNC5=O)c(N)nc3F)cc2)C1` [I-111, 6-(2-amino-6-fluoro-5-(4-((1S,5R)-3-isopropyl-3-azabicyclo[3.1.0]hexan-1-yl)phenyl)pyridin-3-yl)-3,4-dihydroisoquinolin-1(2H)-one 2,2,2-trifluoroacetate], the figures for the half-inhibitory concentration (IC50) (in assay [1]; at Lck (h)) were 0.1 to 10 nM and over 1000 nM, respectively.
Regarding `Nc1nc(F)c(-c2ccc(N3CC[C@@H](F)C3)cc2)cc1-c1ccc2c(c1)CCNC2=O` [I-112, (R)-6-(2-amino-6-fluoro-5-(4-(3-fluoropyrrolidin-1-yl)phenyl)pyridin-3-yl)-3,4-dihydroisoquinolin-1(2H)-one], the IC50 in assay [1] is 11 to 100 nM; at Lck (h) it was over 1000 nM.
For `Nc1nc(F)c(-c2ccc(N3CC[C@H](F)C3)cc2)cc1-c1ccc2c(c1)CCNC2=O` [I-113, (S)-6-(2-amino-6-fluoro-5-(4-(3-fluoropyrrolidin-1-yl)phenyl)pyridin-3-yl)-3,4-dihydroisoquinolin-1(2H)-one] the same measures were 11 to 100 nM and over 1000 nM.
With `CO[C@@H]1CCN(c2ccc(-c3cc(-c4ccc5c(c4)CCNC5=O)c(N)nc3F)cc2)C1` [I-114, (R)-6-(2-amino-6-fluoro-5-(4-(3-methoxypyrrolidin-1-yl)phenyl)pyridin-3-yl)-3,4-dihydroisoquinolin-1(2H)-one], the figures for the IC50 (in assay [1]; at Lck (h)) were 11 to 100 nM and over 1000 nM, respectively.
Regarding `CO[C@H]1CCN(c2ccc(-c3cc(-c4ccc5c(c4)CCNC5=O)c(N)nc3F)cc2)C1` [I-115, (S)-6-(2-amino-6-fluoro-5-(4-(3-methoxypyrrolidin-1-yl)phenyl)pyridin-3-yl)-3,4-dihydroisoquinolin-1(2H)-one], the half-inhibitory concentration (IC50) in assay [1] was 0.1 to 10 nM; on Lck (h), over 1000 nM.
For `CS(=O)(=O)[C@@H]1CCN(c2ccc(-c3cc(-c4ccc5c(c4)CCNC5=O)c(N)nc3F)cc2)C1` [I-116, (R)-6-(2-amino-6-fluoro-5-(4-(3-(methylsulfonyl)pyrrolidin-1-yl)phenyl)pyridin-3-yl)-3,4-dihydroisoquinolin-1(2H)-one] the same measures were 0.1 to 10 nM and over 1000 nM.
For `CS(=O)(=O)[C@H]1CCN(c2ccc(-c3cc(-c4ccc5c(c4)CCNC5=O)c(N)nc3F)cc2)C1` [I-117, (S)-6-(2-amino-6-fluoro-5-(4-(3-(methylsulfonyl)pyrrolidin-1-yl)phenyl)pyridin-3-yl)-3,4-dihydroisoquinolin-1(2H)-one] the same measures were 0.1 to 10 nM and over 1000 nM.
For `CN1C=NN(c2ccc(-c3cc(-c4ccc5c(c4)CCNC5=O)c(N)nc3F)cc2)CC1` [I-118, 6-(2-amino-6-fluoro-5-(4-(4-methyl-5,6-dihydro-1,2,4-triazin-1(4H)-yl)phenyl)pyridin-3-yl)-3,4-dihydroisoquinolin-1(2H)-one], the concentration for half-maximal inhibition (IC50) is 0.1 to 10 nM in assay [1] and over 1000 nM on Lck (h).
Regarding `Nc1nc(F)c(-c2ccc(C3CCN(CCO)CC3)cc2)cc1-c1ccc2c(c1)CCNC2=O` [I-119, 6-(2-amino-6-fluoro-5-(4-(1-(2-hydroxyethyl)piperidin-4-yl)phenyl)pyridin-3-yl)-3,4-dihydroisoquinolin-1(2H)-one], the IC50 in assay [1] is 0.1 to 10 nM; at Lck (h), over 1000 nM.
The corresponding values for `CCN1CC=C(c2ccc(-c3cc(-c4ccc5c(c4)CCNC5=O)c(N)nc3F)cc2)C1` [I-120, 6-(2-amino-5-(4-(1-ethyl-2,5-dihydro-1H-pyrrol-3-yl)phenyl)-6-fluoropyridin-3-yl)-3,4-dihydroisoquinolin-1(2H)-one] are 0.1 to 10 nM and over 1000 nM.
For `CC(C)N1CC=C(c2ccc(-c3cc(-c4ccc5c(c4)CCNC5=O)c(N)nc3F)cc2)C1` [I-121, 6-(2-amino-6-fluoro-5-(4-(1-isopropyl-2,5-dihydro-1H-pyrrol-3-yl)phenyl)pyridin-3-yl)-3,4-dihydroisoquinolin-1(2H)-one] the same measures were 0.1 to 10 nM and over 1000 nM.
For `COCCN1CCCC(c2ccc(-c3cc(-c4ccc5c(c4)CCNC5=O)c(N)nc3F)cc2)C1` (centres unmarked) [I-122, 6-(2-amino-6-fluoro-5-(4-(1-(2-methoxyethyl)piperidin-3-yl)phenyl)pyridin-3-yl)-3,4-dihydroisoquinolin-1(2H)-one], the IC50 in assay [1] is 0.1 to 10 nM; at Lck (h), over 1000 nM.
For `Nc1nc(F)c(-c2ccc(C3=CCN(CCO)C3)cc2)cc1-c1ccc2c(c1)CCNC2=O` [I-123, 6-(2-amino-6-fluoro-5-(4-(1-(2-hydroxyethyl)-2,5-dihydro-1H-pyrrol-3-yl)phenyl)pyridin-3-yl)-3,4-dihydroisoquinolin-1(2H)-one], the IC50 was 0.1 to 10 nM in assay [1] and over 1000 nM at Lck (h).
Regarding `COCCN1CC=C(c2ccc(-c3cc(-c4ccc5c(c4)CCNC5=O)c(N)nc3F)cc2)C1` [I-124, 6-(2-amino-6-fluoro-5-(4-(1-(2-methoxyethyl)-2,5-dihydro-1H-pyrrol-3-yl)phenyl)pyridin-3-yl)-3,4-dihydroisoquinolin-1(2H)-one], the values for the IC50 (in assay [1]; on Lck (h)) were 0.1 to 10 nM and over 1000 nM, respectively.
For `CC(C)(O)CN1C[C@H]2C[C@@]2(c2ccc(-c3cc(-c4ccc5c(c4)CCNC5=O)c(N)nc3F)cc2)C1` [I-125, 6-(2-amino-6-fluoro-5-(4-((1R,5S)-3-(2-hydroxy-2-methylpropyl)-3-azabicyclo[3.1.0]hexan-1-yl)phenyl)pyridin-3-yl)-3,4-dihydroisoquinolin-1(2H)-one] the same measures were 0.1 to 10 nM and over 1000 nM.
For `CC(C)(O)CN1C[C@@H]2C[C@]2(c2ccc(-c3cc(-c4ccc5c(c4)CCNC5=O)c(N)nc3F)cc2)C1` [I-126, 6-(2-amino-6-fluoro-5-(4-((1S,5R)-3-(2-hydroxy-2-methylpropyl)-3-azabicyclo[3.1.0]hexan-1-yl)phenyl)pyridin-3-yl)-3,4-dihydroisoquinolin-1(2H)-one] the same measures were 0.1 to 10 nM and over 1000 nM.
As for `Nc1nc(F)c(-c2ccc(C3=CCN(CC(F)F)C3)cc2)cc1-c1ccc2c(c1)CCNC2=O` [I-127, 6-(2-amino-5-(4-(1-(2,2-difluoroethyl)-2,5-dihydro-1H-pyrrol-3-yl)phenyl)-6-fluoropyridin-3-yl)-3,4-dihydroisoquinolin-1(2H)-one], the concentration for half-maximal inhibition (IC50) in assay [1] was 0.1 to 10 nM; on Lck (h), over 1000 nM.
As to `Nc1nc(F)c(-c2ccc(S(=O)(=O)C3CCNCC3)cc2)cc1-c1ccc2c(c1)CCNC2=O` [I-128, 6-(2-amino-6-fluoro-5-(4-(piperidin-4-ylsulfonyl)phenyl)pyridin-3-yl)-3,4-dihydroisoquinolin-1(2H)-one], the IC50 in assay [1] is 11 to 100 nM; at Lck (h), over 1000 nM.
The corresponding values for `CN1CCC(n2cc(-c3cc(-c4cc5c(cc4F)C(=O)NCC5)c(N)nc3F)cn2)CC1` [I-129, 6-(2-amino-6-fluoro-5-(1-(1-methylpiperidin-4-yl)-1H-pyrazol-4-yl)pyridin-3-yl)-7-fluoro-3,4-dihydroisoquinolin-1(2H)-one] are 0.1 to 10 nM and 101 to 1000 nM.
Take `CC(C)[C@H]1CN(c2ccc(-c3cc(-c4ccc5c(c4)CCNC5=O)c(N)nc3F)cc2C(F)(F)F)CCO1` [I-130, (S)-6-(2-amino-6-fluoro-5-(4-(2-isopropylmorpholino)-3-(trifluoromethyl)phenyl)pyridin-3-yl)-3,4-dihydroisoquinolin-1(2H)-one]: the values for the half-maximal inhibitory concentration (IC50) (in assay [1]; at Lck (h)) were 11 to 100 nM and over 1000 nM, respectively.
Turning to `CCN1CCOCC1c1ccc(-c2cc(-c3ccc4c(c3)CCNC4=O)c(N)nc2F)cc1` (centres unmarked) [I-131, 6-(2-amino-5-(4-(4-ethylmorpholin-3-yl)phenyl)-6-fluoropyridin-3-yl)-3,4-dihydroisoquinolin-1(2H)-one], the IC50 in assay [1] was 0.1 to 10 nM; at Lck (h), over 1000 nM.
`CC(C)N1CCOCC1c1ccc(-c2cc(-c3ccc4c(c3)CCNC4=O)c(N)nc2F)cc1` (centres unmarked) [I-132, 6-(2-amino-6-fluoro-5-(4-(4-isopropylmorpholin-3-yl)phenyl)pyridin-3-yl)-3,4-dihydroisoquinolin-1(2H)-one]: the figures for the half-inhibitory concentration (IC50) (in assay [1]; at Lck (h)) were 0.1 to 10 nM and over 1000 nM, respectively.
The corresponding values for `Nc1nc(F)c(-c2ccc(C3COCCN3CC(F)F)cc2)cc1-c1ccc2c(c1)CCNC2=O` (centres unmarked) [I-133, 6-(2-amino-5-(4-(4-(2,2-difluoroethyl)morpholin-3-yl)phenyl)-6-fluoropyridin-3-yl)-3,4-dihydroisoquinolin-1(2H)-one] are 0.1 to 10 nM and over 1000 nM.
For `COCCN1CCOCC1c1ccc(-c2cc(-c3ccc4c(c3)CCNC4=O)c(N)nc2F)cc1` (centres unmarked) [I-134, 6-(2-amino-6-fluoro-5-(4-(4-(2-methoxyethyl)morpholin-3-yl)phenyl)pyridin-3-yl)-3,4-dihydroisoquinolin-1(2H)-one], the values for the IC50 (in assay [1]; at Lck (h)) were 0.1 to 10 nM and over 1000 nM, respectively.
